Results reported in patent US6160087A, “Peptides having an amino acid sequence from the fimbrial protein of porphyromonas gingivalis and their uses” (priority 1993, dated 2000).
Where no end group is shown, it is not given here.

Legend:
[1] = test system: anti-Porphyomonas gingivalis fimbria antibodies contained in sera of patients with periodontal disease; experiment: Assay of the specific antibody in serum using plates coated with peptide-modified BSA (ELISA); format: binding, human; details: average absorbance (405 nm) of 3 specimens, serum diluted 100 times
Method: One mg of each peptide synthesized in Example 2 was dissolved in 1 ml of 0.1 M phosphate buffered saline (PBS, pH 6.0), 5 mg of sulfated SMCC (made by Pierce Co.) was added, and the mixture was incubated at 30° C. for 30 minutes to conduct maleimidization, and then subjected to Sephadex G-10 column chromatography, and the first eluate fraction was collected. 7 mg of bovine serum albumin (BSA: made by Wako Pure Chemical Industries, Ltd.) was dissolved in 1 ml of 0.1 M phosphate buffer (pH 6.0), 10 mM EDTA, the solution was mixed with the above maleimidized peptide, and the mixture was subjected to reaction at 30° C. for 1 hour. The resultant peptide-modified BSA was subjected to Sephadex G-50 column chromatography, and the first eluate fraction was collected as a plate-preparing antigen solution.
Then, six kind of peptides were synthesized after the process of Example 2, and a plate-preparing antigen solution was similarly prepared as a control.
Each of the resultant antigen solutions was diluted with 0.1 M carbonate buffer (pH 9.6), 150 mM NaCl to give 100 ml of a solution. 10 μl/well of the solution was put in a polystyrene-made microtiter plate (Immunoplate II; maxisorp type; made by Nunc Co.) and left alone at 4° C. overnight, and washing was conducted three times each with 200 μl/well of PBS, using a microtiter automatic washer (hereafter abbreviated as washer; made by Bio-Rad Laboratories). 250 μl/well of PBS containing 0.1% gelatin (made by Nitta Gelatin Co., Ltd.) was added and the mixture was allowed to stand at 4° C. overnight to block the plate. The blocking solution was removed by absorption, and the plate was dried by a vacuum dryer, put in an aluminum bag, and after sealing the bag, kept at 4° C. for the following assay.
Sera of patients of periodontal disease (n=3) and normal subjects (n=3) were used as samples, and each serum was diluted 100 times with PBS containing 10% bovine serum. 100 μl portions of these dilutions were added to the plates coated with various antigens, respectively, and incubation was conducted at 37° C. for 1 hour. Each plate was washed three times with 200 μl of PBST using the washer, 100 μl of a commercially available […] (diluted 10^3 times)/0.1% Casein/PBST was added as a secondary antibody, and incubation was conducted again at 37° C. for 1 hour. The plate was washed in the same manner as above, 100 μl of an o-phenylenediamine solution was added, incubation was conducted at 37° C. for 30 minutes, 100 μl of 0.1 N sulfuric acid was added to stop the reaction, and then, absorbance (405 nm) was measured by a microplate reader (made by Bio-Rad Laboratories) using the reaction well of no addition of the specimen as a control. The measures values are average absorbances of 3 specimens each of the patient group of periodontal disease and the normal subject group.

Porphyomonas gingivalis = format: in vivo, guinea pig; details: with FCA; for Degree of redness Longest length × shortest length: 500 μg/animal, inoculation on the 28th day, 24 hours later; for Inhibition rate: relative to the FIA inoculation group
Method: Each peptide synthesized in Example 2 was administered together with FIA (Freund's incomplete adjuvant) or FCA (Freund's complete adjuvant), as a water-in-oil type emulsifier, into the sole of the right hind leg of a guinea pig in an amount of 500 μg/animal/time. Thereafter, on the 28th day, 200 μl of a suspension of 10^11 cells/ml of the bacterium was intracutaneously inoculated into the right flank of the same guinea pig after the hair at the region was shaved. 24 hours later, the longest length and shortest length of the resultant red coloring were measured, and the product of them was calculated. From the product was calculated the inhibition rate.

[2] = test system: fimbrial protein of Porphyomonas gingivalis; experiment: Immunization of mice with the peptides: antibody titer in serum or saliva by ELISA; format: in vivo; details: A405 value by the ELISA method, with FCA, 4 weeks later
Method: (§1) Each peptide synthesized in Example 2 was dissolved in PBS so as to make the concentration 200 μg/ml, the solution was mixed with the same volume of FCA, and the mixture after emulsification was subcutaneously injected into mice at the back (3 animals per group). 4 weeks later, the antibody titer in the serum or saliva against the peptide was assayed by an ELISA method.
The fimbrial protein of Porphyomonas gingivalis was adsorbed on each well of a 96-well microtiter plate for ELISA, and a dilution of the serum with PBS (1/10^5), a dilution of the saliva with PBS (1/500), or a solution obtained by adding each peptide or the fimbrial protein of Porphyomonas gingivalis is to the dilution of the serum or saliva to cause absorption was put in the well. Reaction was conducted at 37° C. for 1 hour, and then assay was conducted by a usual ELISA method.

[3] = Immunization of mice with the peptides: body weight; format: in vivo; details: mice immunized with FCA emulsion, 3 animals per group
Method: as §1

Substance: LCVYGKLQKN [Comparative peptide, reference compound]
- Antibody titer, Normal subject group [1]: 0.213
- Antibody titer, Patient group with peridontal disease [1]: 0.182

Substance: Peptide 4: synthetic peptide, epitope of the 41 kD fimbrial subunit protein of Porphyomonas gingivalis; sequence in Table 1, not shown (AAGLIMTAEP)
- Antibody titer, Normal subject group [1]: 0.197
- Antibody titer, Patient group with peridontal disease [1]: 0.941
- Degree of redness Longest length × shortest length (Porphyomonas gingivalis): 851 mm^2
- Inhibition rate (Porphyomonas gingivalis): 56.3%
- Antibody titer Saliva (1/500) After absorption [2]: 0.12
- Antibody titer Saliva (1/500) Before absorption [2]: 0.49
- Antibody titer Serum (1/10^5) After absorption [2]: 0.13
- Antibody titer Serum (1/10^5) Before absorption [2]: 0.52
- Body weight (Average g) [3]: 27 g

Substance: WLSRNYVAPA [Comparative peptide, reference compound]
- Antibody titer, Normal subject group [1]: 0.204
- Antibody titer, Patient group with peridontal disease [1]: 0.210

Substance: Peptide 8: synthetic peptide, epitope of the 41 kD fimbrial subunit protein of Porphyomonas gingivalis; sequence in Table 1, not shown (ANGGTIHPTI)
- Antibody titer, Normal subject group [1]: 0.182
- Antibody titer, Patient group with peridontal disease [1]: 0.935
- Degree of redness Longest length × shortest length (Porphyomonas gingivalis): 1022 mm^2
- Inhibition rate (Porphyomonas gingivalis): 47.5%
- Antibody titer Saliva (1/500) After absorption [2]: 0.14
- Antibody titer Saliva (1/500) Before absorption [2]: 0.45
- Antibody titer Serum (1/10^5) After absorption [2]: 0.11
- Antibody titer Serum (1/10^5) Before absorption [2]: 0.49
- Body weight (Average g) [3]: 25 g

Substance: NHIENDPLKI [Comparative peptide, reference compound]
- Antibody titer, Normal subject group [1]: 0.201
- Antibody titer, Patient group with peridontal disease [1]: 0.205

Substance: Peptide 6: synthetic peptide, epitope of the 41 kD fimbrial subunit protein of Porphyomonas gingivalis; sequence in Table 1, not shown (TFNGAYTPAN)
- Antibody titer, Normal subject group [1]: 0.141
- Antibody titer, Patient group with peridontal disease [1]: 0.675
- Degree of redness Longest length × shortest length (Porphyomonas gingivalis): 1112 mm^2
- Inhibition rate (Porphyomonas gingivalis): 42.9%
- Antibody titer Saliva (1/500) After absorption [2]: 0.11
- Antibody titer Saliva (1/500) Before absorption [2]: 0.39
- Antibody titer Serum (1/10^5) After absorption [2]: 0.12
- Antibody titer Serum (1/10^5) Before absorption [2]: 0.41
- Body weight (Average g) [3]: 26 g

Substance: DANYLTGSLT [Comparative peptide, reference compound]
- Antibody titer, Normal subject group [1]: 0.145
- Antibody titer, Patient group with peridontal disease [1]: 0.196

Substance: Peptide 9: synthetic peptide, epitope of the 41 kD fimbrial subunit protein of Porphyomonas gingivalis; sequence in Table 1, not shown (EGKTYYPVLV)
- Antibody titer, Normal subject group [1]: 0.186
- Antibody titer, Patient group with peridontal disease [1]: 0.546
- Degree of redness Longest length × shortest length (Porphyomonas gingivalis): 1265 mm^2
- Inhibition rate (Porphyomonas gingivalis): 35.0%
- Antibody titer Saliva (1/500) After absorption [2]: 0.13
- Antibody titer Saliva (1/500) Before absorption [2]: 0.34
- Antibody titer Serum (1/10^5) After absorption [2]: 0.13
- Antibody titer Serum (1/10^5) Before absorption [2]: 0.32
- Body weight (Average g) [3]: 26 g

Substance: RTLVVMANTG [Comparative peptide, reference compound]
- Antibody titer, Normal subject group [1]: 0.161
- Antibody titer, Patient group with peridontal disease [1]: 0.199

Substance: VMVYNGEQQE [Comparative peptide, reference compound]
- Antibody titer, Normal subject group [1]: 0.172
- Antibody titer, Patient group with peridontal disease [1]: 0.165
